Test results taken from ChEMBL document CHEMBL4028827, “Discovery of indazole aldosterone synthase (CYP11B2) inhibitors as potential treatments for hypertension” (Bioorg Med Chem Lett, 2017).

How the values were obtained:
[1] = target: T1, Steroid 17-alpha-hydroxylase/17,20 lyase (Homo sapiens, UniProt P05093); assay: Inhibition of human CYP17 expressed in African green monkey COS7 cells using 17-hydroxypregnenolone as substrate preincubated for 1 hr followed by substrate addition measured after 3 hrs by EIA; type: cell-based
T1 sequence (P05093 whole entry): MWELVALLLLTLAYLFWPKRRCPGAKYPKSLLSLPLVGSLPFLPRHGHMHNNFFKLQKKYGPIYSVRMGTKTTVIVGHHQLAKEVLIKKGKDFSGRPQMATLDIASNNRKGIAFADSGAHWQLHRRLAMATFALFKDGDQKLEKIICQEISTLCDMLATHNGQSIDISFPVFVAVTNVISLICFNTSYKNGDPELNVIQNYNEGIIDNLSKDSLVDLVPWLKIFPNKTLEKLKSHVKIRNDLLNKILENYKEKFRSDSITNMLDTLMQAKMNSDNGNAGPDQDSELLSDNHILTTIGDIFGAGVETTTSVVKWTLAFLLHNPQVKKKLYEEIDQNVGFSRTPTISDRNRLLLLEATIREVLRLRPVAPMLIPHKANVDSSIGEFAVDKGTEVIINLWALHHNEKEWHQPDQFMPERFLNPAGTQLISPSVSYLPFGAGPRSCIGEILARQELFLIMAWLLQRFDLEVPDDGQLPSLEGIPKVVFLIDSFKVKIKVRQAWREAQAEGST

[2] = target: T2, Cytochrome P450 11B2, mitochondrial (Homo sapiens, UniProt P19099); assay: Inhibition of human CYP11B2-CLE9 expressed in Chinese hamster V79 cells using 11-deoxycorticosterone as substrate preincubated for 1 hr followed by substrate addition measured for 3 hrs by HTRF assay; type: cell-based
T2 sequence (P19099 whole entry): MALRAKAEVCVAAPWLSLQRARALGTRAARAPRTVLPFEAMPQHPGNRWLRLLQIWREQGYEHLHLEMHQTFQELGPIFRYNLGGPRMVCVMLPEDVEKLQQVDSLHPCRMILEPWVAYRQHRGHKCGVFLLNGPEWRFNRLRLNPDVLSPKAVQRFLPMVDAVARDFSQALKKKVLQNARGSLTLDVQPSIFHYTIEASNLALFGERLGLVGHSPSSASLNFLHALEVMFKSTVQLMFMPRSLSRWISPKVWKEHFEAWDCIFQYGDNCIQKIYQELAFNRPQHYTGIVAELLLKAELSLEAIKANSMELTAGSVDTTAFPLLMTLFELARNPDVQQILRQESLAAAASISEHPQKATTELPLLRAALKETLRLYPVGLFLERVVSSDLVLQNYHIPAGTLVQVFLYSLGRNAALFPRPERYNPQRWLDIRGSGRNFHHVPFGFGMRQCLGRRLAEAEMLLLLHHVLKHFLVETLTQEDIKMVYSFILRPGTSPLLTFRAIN

Steroid 21-hydroxylase = target: T3, Steroid 21-hydroxylase (Homo sapiens, UniProt P08686); assay: Inhibition of human CYP21 expressed in African green monkey COS7 cells using […] as substrate preincubated for 1 hr followed by substrate addition measured for 3 hrs by HTRF assay; type: cell-based
T3 sequence (P08686 whole entry): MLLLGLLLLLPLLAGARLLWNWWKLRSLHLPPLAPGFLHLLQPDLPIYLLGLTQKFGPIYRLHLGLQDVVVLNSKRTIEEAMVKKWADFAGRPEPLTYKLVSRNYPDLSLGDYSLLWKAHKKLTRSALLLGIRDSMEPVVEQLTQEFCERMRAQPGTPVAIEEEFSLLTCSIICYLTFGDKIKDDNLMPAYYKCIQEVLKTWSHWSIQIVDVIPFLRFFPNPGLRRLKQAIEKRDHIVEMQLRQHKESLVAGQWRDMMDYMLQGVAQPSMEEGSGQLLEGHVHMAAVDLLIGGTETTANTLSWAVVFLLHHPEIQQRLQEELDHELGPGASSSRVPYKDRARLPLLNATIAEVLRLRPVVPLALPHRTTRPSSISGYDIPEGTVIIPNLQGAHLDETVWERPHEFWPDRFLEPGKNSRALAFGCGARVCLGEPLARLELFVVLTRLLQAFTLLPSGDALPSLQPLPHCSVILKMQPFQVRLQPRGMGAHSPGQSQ

Aromatase = target: T4, Aromatase (Homo sapiens, UniProt P11511); assay: Inhibition of CYP19 (unknown origin) using MFC as substrate and NADPH as cofactor preincubated for 10 mins with cofactor followed by substrate/enzyme addition measured after 30 mins
T4 sequence (P11511 whole entry): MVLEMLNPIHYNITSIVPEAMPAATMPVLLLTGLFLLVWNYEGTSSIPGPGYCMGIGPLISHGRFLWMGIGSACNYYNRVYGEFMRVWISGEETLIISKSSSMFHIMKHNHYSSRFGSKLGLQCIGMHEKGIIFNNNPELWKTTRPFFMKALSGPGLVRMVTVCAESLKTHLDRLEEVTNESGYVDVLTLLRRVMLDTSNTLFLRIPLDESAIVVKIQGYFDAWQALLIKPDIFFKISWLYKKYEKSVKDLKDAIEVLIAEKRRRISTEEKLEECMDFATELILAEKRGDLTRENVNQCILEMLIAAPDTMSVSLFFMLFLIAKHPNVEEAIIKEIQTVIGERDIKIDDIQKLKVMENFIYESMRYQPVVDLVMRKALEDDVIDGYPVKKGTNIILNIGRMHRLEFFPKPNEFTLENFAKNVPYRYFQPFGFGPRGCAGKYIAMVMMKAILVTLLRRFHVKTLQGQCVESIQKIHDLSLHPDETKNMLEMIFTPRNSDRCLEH

[3] = Selectivity ratio of IC50 for human CYP11B1-8C7 expressed in Chinese hamster V79 cells to IC50 for human CYP11B2-CLE9 expressed in Chinese hamster V79 cells
[4] = target: T5, Cytochrome P450 11B2, mitochondrial (Rattus norvegicus, UniProt P30099); assay: Inhibition of rat CYP11B2-1F4 expressed in Chinese hamster V79 cells using 11-deoxycorticosterone as substrate preincubated for 1 hr followed by substrate addition measured for 3 hrs by HTRF assay; type: cell-based
T5 sequence (P30099 whole entry): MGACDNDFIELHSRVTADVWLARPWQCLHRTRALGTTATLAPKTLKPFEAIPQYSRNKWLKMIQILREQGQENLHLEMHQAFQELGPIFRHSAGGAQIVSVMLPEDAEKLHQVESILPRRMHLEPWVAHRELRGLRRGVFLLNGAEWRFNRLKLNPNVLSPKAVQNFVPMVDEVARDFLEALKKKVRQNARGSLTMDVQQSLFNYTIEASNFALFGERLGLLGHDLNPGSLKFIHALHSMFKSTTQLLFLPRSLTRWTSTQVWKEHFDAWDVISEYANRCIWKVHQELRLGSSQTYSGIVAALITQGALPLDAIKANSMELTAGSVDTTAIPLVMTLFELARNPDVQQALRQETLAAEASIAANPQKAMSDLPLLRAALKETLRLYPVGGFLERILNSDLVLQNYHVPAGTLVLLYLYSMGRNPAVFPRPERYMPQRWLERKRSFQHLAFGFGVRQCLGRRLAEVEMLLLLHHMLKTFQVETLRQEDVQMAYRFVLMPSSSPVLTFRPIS

Cytochrome P450 2C9 = Cytochrome P450 2C9 (Homo sapiens, UniProt P11712); assay: Inhibition of hepatic CYP2C9 (unknown origin); type: ADME
Sequence of Cytochrome P450 2C9 (P11712 whole entry): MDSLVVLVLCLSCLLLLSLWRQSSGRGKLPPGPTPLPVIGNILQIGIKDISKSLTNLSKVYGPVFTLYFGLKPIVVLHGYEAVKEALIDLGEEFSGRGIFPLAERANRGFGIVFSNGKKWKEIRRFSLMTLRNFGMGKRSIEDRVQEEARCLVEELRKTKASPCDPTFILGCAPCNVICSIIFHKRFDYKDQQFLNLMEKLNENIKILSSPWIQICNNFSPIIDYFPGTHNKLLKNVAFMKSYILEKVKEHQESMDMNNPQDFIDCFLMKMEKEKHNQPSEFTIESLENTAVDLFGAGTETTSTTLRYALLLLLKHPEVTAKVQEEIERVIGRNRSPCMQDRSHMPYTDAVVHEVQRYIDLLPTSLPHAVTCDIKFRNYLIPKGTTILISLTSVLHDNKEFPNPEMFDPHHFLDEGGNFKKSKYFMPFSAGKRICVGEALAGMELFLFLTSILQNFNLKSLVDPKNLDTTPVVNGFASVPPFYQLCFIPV

Cytochrome P450 3A4 = Cytochrome P450 3A4 (Homo sapiens, UniProt P08684); assay: Inhibition of hepatic CYP3A4 (unknown origin); type: ADME
Sequence of Cytochrome P450 3A4 (P08684 whole entry): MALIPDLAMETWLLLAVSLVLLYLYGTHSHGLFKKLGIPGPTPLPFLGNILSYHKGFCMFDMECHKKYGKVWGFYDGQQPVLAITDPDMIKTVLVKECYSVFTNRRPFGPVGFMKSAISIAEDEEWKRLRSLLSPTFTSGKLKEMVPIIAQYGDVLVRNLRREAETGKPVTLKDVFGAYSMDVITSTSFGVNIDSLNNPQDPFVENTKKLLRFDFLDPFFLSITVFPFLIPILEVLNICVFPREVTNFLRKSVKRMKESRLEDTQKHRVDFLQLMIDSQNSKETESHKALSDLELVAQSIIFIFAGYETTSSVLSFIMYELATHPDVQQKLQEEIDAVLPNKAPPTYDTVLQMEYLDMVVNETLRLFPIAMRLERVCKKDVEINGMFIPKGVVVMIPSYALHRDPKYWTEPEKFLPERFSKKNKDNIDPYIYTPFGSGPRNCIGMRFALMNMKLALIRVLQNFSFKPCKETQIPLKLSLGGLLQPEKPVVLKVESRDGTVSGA

Cytochrome P450 2D6 = Cytochrome P450 2D6 (Homo sapiens, UniProt P10635); assay: Inhibition of hepatic CYP2D6 (unknown origin); type: ADME
Sequence of Cytochrome P450 2D6 (P10635 whole entry): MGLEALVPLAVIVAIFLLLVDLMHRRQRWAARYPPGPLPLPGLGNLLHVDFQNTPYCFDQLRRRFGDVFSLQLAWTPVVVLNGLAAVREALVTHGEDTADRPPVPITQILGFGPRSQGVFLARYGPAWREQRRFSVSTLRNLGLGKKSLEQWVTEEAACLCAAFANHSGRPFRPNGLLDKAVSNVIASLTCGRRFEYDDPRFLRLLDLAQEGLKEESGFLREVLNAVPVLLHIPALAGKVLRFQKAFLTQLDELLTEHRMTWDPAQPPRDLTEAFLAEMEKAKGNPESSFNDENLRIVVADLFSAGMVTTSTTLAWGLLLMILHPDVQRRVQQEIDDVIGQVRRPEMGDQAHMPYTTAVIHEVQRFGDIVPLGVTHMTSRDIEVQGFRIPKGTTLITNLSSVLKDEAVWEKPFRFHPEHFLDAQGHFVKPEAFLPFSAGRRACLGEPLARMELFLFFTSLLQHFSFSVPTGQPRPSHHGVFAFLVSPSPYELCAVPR

[5] = target: T6, Cytochrome P450 11B1, mitochondrial (Homo sapiens, UniProt P15538); assay: Inhibition of human CYP11B1-8C7 expressed in Chinese hamster V79 cells using 11-deoxycortisol as substrate preincubated for 1 hr followed by substrate addition measured for 3 hrs by HTRF assay; type: ADME, cell-based
T6 sequence (P15538 whole entry): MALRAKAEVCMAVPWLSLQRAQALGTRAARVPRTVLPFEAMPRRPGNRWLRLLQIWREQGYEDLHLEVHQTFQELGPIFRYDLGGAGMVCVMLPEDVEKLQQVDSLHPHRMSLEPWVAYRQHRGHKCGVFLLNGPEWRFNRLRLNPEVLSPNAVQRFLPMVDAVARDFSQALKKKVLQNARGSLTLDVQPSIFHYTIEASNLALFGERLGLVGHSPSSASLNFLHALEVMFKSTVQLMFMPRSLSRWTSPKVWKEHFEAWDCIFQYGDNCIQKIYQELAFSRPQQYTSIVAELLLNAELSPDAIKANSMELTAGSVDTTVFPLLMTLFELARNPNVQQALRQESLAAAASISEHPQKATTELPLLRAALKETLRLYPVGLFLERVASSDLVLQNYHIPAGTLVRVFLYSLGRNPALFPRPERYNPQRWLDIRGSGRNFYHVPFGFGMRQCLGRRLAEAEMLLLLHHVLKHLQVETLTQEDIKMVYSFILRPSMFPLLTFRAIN

IC50 [1]	IC50 [2]	IC50 (Steroid 21-hydroxylase)	IC50 (Aromatase)	IC50 [4]	IC50 (Cytochrome P450 2C9)	IC50 (Cytochrome P450 3A4)	IC50 (Cytochrome P450 2D6)	IC50 [5]	SMILES	Ratio IC50 [3]
> 10 µM	0.014 to 0.0143 µM	> 10 µM	6.3 µM	0.014 µM	11 µM	> 50 µM	> 50 µM	0.338 to 0.34 µM	Cc1nn(-c2cncc([C@](C)(O)C(F)(F)F)c2)c2ccccc12	24
> 10 µM	0.0329 to 0.033 µM	> 10 µM	6.2 µM	0.033 µM	3.8 µM	> 50 µM	> 50 µM	0.386 to 0.39 µM	Cc1nn(-c2cncc([C@@](C)(O)C(F)(F)F)c2)c2ccccc12	12
